Test results published in PMC4632759, “Studies on [5,6]-Fused Bicyclic Scaffolds Derivatives as Potent Dual B-Raf^V600E/KDR Inhibitors Using Docking and 3D-QSAR Approaches” (International Journal of Molecular Sciences, 2015).
pIC50: −log10 of the molar value. Like-named read-outs stand apart in the source and are kept apart here.

Legend:
B-Raf^V600E [1] = molecular target: T1, B-Raf^V600E (Homo sapiens, UniProt P15056, V600E); experiment: B-Raf^V600E kinase inhibition (literature data set); type: biochemical; settings: −log IC50 of literature IC50; for IC50: read-out: B-Raf Actual pIC50 (converted)
Experimental: The IC50 values of all compounds for B-Raf and KDR inhibition were converted to the −log IC50 (pIC50) as dependent variables in the 3D-QSAR analysis. The 3D structures for all 40 compounds were built and minimized, and then Gasteiger-Hückel charge was calculated. All works were all done in SYBYL 6.9 (Tripos, Inc.: St. Louis, MO, USA, 2002).

B-Raf^V600E [2] = molecular target: T1, B-Raf^V600E; parameters: method as in PMID 22376051, PMID 22763369, PMID 22883026, PMID 23906342; settings: literature values used as 3D-QSAR data set; read-out: Kinase IC50 B-Raf^V600E; cited from earlier work
VEGFR2 [3] = molecular target: T2, VEGFR2 (Homo sapiens, UniProt P35968); experiment: VEGFR2 (KDR) kinase inhibition (literature data set); type: biochemical
Experimental: The IC50 values of all compounds for B-Raf and KDR inhibition were converted to the −log IC50 (pIC50) as dependent variables in the 3D-QSAR analysis. The 3D structures for all 40 compounds were built and minimized, and then Gasteiger-Hückel charge was calculated.

VEGFR2 [4] = molecular target: T2, VEGFR2; parameters: method as in PMID 22376051, PMID 22763369, PMID 22883026, PMID 23906342; settings: literature values used as 3D-QSAR data set; read-out: Kinase IC50 VEGFR2; cited from earlier work
B-Raf^V600E [5] = molecular target: T1, B-Raf^V600E; experiment: B-Raf^V600E inhibitory activity of designed new compounds (preliminary pharmacological evaluation); type: biochemical; settings: for pIC50: preliminary biological tests
Excerpt: (§1) The designed molecules were synthesized and the preliminary pharmacological evaluation would be used to verify the biological activity and our design strategy.

KDR = KDR (Homo sapiens, UniProt P35968); experiment: KDR inhibitory activity of designed new compounds (preliminary pharmacological evaluation); type: biochemical; settings: for pIC50: preliminary biological tests
Excerpt: as §1

Sequence of KDR (P35968 20-1356): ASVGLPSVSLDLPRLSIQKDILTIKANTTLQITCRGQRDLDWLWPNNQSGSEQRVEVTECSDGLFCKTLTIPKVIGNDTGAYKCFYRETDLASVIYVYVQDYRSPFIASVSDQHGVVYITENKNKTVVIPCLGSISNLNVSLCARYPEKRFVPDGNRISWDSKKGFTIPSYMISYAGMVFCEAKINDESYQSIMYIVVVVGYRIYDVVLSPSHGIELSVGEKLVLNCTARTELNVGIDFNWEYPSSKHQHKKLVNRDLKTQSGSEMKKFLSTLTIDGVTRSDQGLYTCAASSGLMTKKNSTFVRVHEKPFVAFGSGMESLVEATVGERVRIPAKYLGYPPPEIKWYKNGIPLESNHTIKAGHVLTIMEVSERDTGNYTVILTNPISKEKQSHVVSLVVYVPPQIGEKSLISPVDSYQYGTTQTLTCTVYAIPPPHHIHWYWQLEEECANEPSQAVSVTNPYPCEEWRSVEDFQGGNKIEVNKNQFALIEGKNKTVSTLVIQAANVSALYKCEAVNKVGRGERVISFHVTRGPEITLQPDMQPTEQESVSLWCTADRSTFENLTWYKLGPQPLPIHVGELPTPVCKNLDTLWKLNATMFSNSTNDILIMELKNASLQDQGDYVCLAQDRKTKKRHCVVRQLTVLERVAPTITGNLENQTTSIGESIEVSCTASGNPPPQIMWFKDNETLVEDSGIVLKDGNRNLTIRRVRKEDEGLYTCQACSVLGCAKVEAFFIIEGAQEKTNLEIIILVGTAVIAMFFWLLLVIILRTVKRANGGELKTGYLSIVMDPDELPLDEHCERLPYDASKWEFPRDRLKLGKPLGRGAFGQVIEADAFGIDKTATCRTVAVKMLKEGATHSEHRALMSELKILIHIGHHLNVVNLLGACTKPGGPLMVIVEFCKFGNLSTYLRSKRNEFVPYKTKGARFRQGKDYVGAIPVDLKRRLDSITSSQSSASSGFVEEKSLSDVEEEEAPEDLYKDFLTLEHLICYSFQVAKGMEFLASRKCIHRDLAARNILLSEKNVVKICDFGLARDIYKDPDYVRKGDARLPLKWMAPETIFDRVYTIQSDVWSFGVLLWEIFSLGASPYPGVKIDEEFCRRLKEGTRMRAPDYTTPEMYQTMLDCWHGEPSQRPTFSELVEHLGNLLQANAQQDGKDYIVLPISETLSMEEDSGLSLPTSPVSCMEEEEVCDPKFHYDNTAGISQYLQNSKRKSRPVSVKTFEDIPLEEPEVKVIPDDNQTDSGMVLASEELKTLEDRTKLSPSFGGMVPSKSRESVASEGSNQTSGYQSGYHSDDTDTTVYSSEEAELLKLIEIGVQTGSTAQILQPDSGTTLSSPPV
T1 sequence (P15056 whole entry V600E): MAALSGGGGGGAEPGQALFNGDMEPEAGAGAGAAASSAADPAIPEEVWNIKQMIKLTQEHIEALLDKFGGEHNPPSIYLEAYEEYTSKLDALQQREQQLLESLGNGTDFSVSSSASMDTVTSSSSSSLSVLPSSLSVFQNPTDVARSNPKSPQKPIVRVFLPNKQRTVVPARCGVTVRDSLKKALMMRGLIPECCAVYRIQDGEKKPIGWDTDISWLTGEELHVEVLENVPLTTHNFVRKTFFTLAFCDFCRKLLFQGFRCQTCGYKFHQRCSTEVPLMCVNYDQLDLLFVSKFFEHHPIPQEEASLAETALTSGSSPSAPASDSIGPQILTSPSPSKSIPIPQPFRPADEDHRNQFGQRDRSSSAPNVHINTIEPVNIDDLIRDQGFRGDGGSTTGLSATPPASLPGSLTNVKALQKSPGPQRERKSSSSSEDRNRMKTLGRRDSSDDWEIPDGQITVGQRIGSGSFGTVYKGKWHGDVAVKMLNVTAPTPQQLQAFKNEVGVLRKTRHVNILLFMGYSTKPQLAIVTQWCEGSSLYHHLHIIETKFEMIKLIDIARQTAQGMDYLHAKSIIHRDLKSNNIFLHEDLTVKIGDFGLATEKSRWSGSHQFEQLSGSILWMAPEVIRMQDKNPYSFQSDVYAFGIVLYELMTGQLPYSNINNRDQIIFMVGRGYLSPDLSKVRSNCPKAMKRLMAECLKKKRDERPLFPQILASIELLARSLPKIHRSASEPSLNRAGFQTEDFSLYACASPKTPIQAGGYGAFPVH
T2 sequence (P35968 806-1171): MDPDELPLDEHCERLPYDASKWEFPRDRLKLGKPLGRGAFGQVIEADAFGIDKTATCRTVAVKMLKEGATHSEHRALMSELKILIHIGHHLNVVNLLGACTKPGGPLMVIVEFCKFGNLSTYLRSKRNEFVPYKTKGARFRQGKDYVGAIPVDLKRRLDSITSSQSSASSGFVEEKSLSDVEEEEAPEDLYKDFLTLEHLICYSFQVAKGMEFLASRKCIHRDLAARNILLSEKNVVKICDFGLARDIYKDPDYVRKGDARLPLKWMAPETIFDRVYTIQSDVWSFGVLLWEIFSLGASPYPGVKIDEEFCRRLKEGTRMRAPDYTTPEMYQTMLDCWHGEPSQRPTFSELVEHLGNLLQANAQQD

| SMILES | IC50 (B-Raf^V600E [1]) [nM] | pIC50 (B-Raf^V600E [2]) | pIC50 (VEGFR2 [3]) | pIC50 (VEGFR2 [4]) | KDR Actual pIC50 (VEGFR2 [3]; −log IC50 of literature IC50) | B-Raf Actual pIC50 (B-Raf^V600E [1]) | also measured |
| --- | --- | --- | --- | --- | --- | --- | --- |
| O=C(Nc1cccc(Oc2ccc3nc(NC(=O)C4CCOCC4)cn3n2)c1)c1cccc(C(F)(F)F)c1 [Compound 1-1] | 42.7 | 7.37 |  |  |  |  |  |
| CC(=O)Nc1cn2nc(Oc3cccc(NC(=O)c4cccc(C(F)(F)F)c4)c3)ccc2n1 [Compound 1-2] | 4.07 | 8.39 | 8.96 | 8.96 |  |  |  |
| CCC(=O)Nc1cn2nc(Oc3cccc(NC(=O)c4cccc(C(F)(F)F)c4)c3)ccc2n1 [Compound 1-3] | 6.92 | 8.16 | 8.77 | 8.77 |  |  |  |
| O=C(Nc1cccc(Oc2ccc3nc(NC(=O)C4CC4)cn3n2)c1)c1cccc(C(F)(F)F)c1 [Compound 1-4] | 7.59 | 8.12 | 8.72 | 8.72 |  |  |  |
| O=C(Nc1cccc(Oc2ccc3nc(NC(=O)C4CCC4)cn3n2)c1)c1cccc(C(F)(F)F)c1 [Compound 1-5] | 28.2 | 7.55 | 8.32 | 8.32 |  |  |  |
| O=C(Nc1cccc(Oc2ccc3nc(NC(=O)C4CCCC4)cn3n2)c1)c1cccc(C(F)(F)F)c1 [Compound 1-6] | 43.7 | 7.36 | 8.03 | 8.03 |  |  |  |
| O=C(Nc1cccc(Oc2ccc3nc(NC(=O)C4CC4)cn3n2)c1)c1ccc(C(F)(F)F)cc1 [Compound 1-7] | 81.3 | 7.09 | 8.72 | 8.72 |  |  |  |
| O=C(Nc1cccc(Oc2ccc3nc(NC(=O)C4CC4)cn3n2)c1)c1ccccc1C(F)(F)F [Compound 1-8] | 3720 | 5.43 | 8.85 | 8.85 |  |  |  |
| COc1cccc(C(=O)Nc2cccc(Oc3ccc4nc(NC(=O)C5CC5)cn4n3)c2)c1 [Compound 1-9] | 18.2 | 7.74 | 9.51 | 9.51 |  |  |  |
| CC(C)(C)Oc1cccc(C(=O)Nc2cccc(Oc3ccc4nc(NC(=O)C5CC5)cn4n3)c2)c1 [Compound 1-10] | 15.1 | 7.82 | 8.74 | 8.74 |  |  |  |
| CC(C)(O)c1cccc(C(=O)Nc2cccc(Oc3ccc4nc(NC(=O)C5CC5)cn4n3)c2)c1 [Compound 1-11] | 10 |  | 9.09 | 9.09 |  |  |  |
| CC(C)(C#N)c1cccc(C(=O)Nc2cccc(Oc3ccc4nc(NC(=O)C5CC5)cn4n3)c2)c1 [Compound 1-12] | 14.1 | 7.85 | 8.82 | 8.82 |  |  |  |
| CC(C)(C#N)c1cccc(C(=O)Nc2cccc(Oc3ccc4nc(NC(=O)C5CC5)cn4c3)c2)c1 [Compound 2-1] | 49 | 7.31 | 8.74 | 8.74 |  |  |  |
| CC(C)(C#N)c1cccc(C(=O)Nc2cccc(Oc3ccc4nc(NC(=O)C5CC5)[nH]c4c3)c2)c1 [Compound 2-2] | 40.7 | 7.39 | 8.09 | 8.09 |  |  |  |
| CC(C)(C#N)c1cccc(C(=O)Nc2cccc(Oc3ccc4nc(NC(=O)C5CC5)[nH]c4n3)c2)c1 [Compound 2-3] | 17 | 7.77 | 8.51 | 8.51 |  |  |  |
| Cn1c(NC(=O)C2CC2)nc2ccc(Oc3cccc(NC(=O)c4cccc(C(C)(C)C#N)c4)c3)nc21 [Compound 2-4] | 200 | 6.70 | 8.62 | 8.62 |  |  |  |
| CC(C)(C#N)c1cccc(C(=O)Nc2cccc(Oc3ccc4nc(NC(=O)C5CC5)sc4c3)c2)c1 [Compound 2-5] | 25.1 | 7.60 | 7.85 | 7.85 |  |  |  |
| N#CC1(c2cccc(C(=O)Nc3cccc(Oc4ccc5nc(NC(=O)C6CC6)sc5n4)c3)c2)CC1 [Compound 3-1] | 3.02 | 8.52 | 8.66 | 8.66 |  |  |  |
| N#CC1(c2cccc(C(=O)Nc3cccc(Oc4ccc5nc(NC(=O)C6CC6)sc5n4)c3)c2Cl)CC1 [Compound 3-2] | 8.91 | 8.05 | 8.40 | 8.40 |  |  |  |
| N#CC1(c2cccc(C(=O)Nc3cc(Oc4ccc5nc(NC(=O)C6CC6)sc5n4)ccc3F)c2Cl)CC1 [Compound 3-3] | 7.08 |  |  |  |  |  | IC50 (VEGFR2 [3]; −log IC50 of literature IC50, read-out: KDR Actual pIC50 (converted)): 2.19 nM |
| N#CC1(c2cccc(C(=O)Nc3cc(Oc4ccc5nc(NC(=O)C6CC6)sc5n4)ccc3Cl)c2Cl)CC1 [Compound 3-4] | 42.7 | 7.37 | 8.12 | 8.12 |  |  |  |
| CC(=O)Nc1nc2ccc(Oc3ccc(F)c(NC(=O)c4cccc(C5(C#N)CC5)c4Cl)c3)nc2s1 [Compound 3-5] | 6.31 | 8.20 | 8.47 | 8.47 |  |  |  |

| SMILES | IC50 (B-Raf^V600E [1]) [nM] | pIC50 (B-Raf^V600E [2]) | pIC50 (VEGFR2 [3]) | pIC50 (VEGFR2 [4]) | KDR Actual pIC50 (VEGFR2 [3]; −log IC50 of literature IC50) | B-Raf Actual pIC50 (B-Raf^V600E [1]) | also measured |
| --- | --- | --- | --- | --- | --- | --- | --- |
| CC(=O)Nc1nc2ccc(N(C)c3ccc(F)c(NC(=O)c4cccc(OC(C)(C)C#N)c4)c3)nc2s1 [Compound 3-6] |  |  |  |  | 8.00 | 7.64 |  |
| CC(=O)Nc1nc2ccc(N(C)c3ccc(F)c(NC(=O)c4cccc(OC(C)(C)C#N)c4Cl)c3)nc2s1 [Compound 3-7] |  |  |  |  | 7.85 | 7.35 |  |
| CN(c1ccc(F)c(NC(=O)c2cccc(OC(C)(C)C#N)c2Cl)c1)c1ccc2nc(NC(=O)C3CC3)sc2n1 [Compound 3-8] |  |  |  |  | 8.12 |  |  |
| CC(=O)Nc1nc2cnc(Oc3cc(NC(=O)c4cccc(CCC#N)c4)ccc3C)nc2s1 [Compound 4-1] | 51.3 | 7.29 | 6.39 | 6.39 |  |  |  |
| CC(=O)Nc1nc2cnc(Oc3cc(NC(=O)c4cccc(CC(C)(C)C#N)c4)ccc3C)nc2s1 [Compound 4-2] | 100 |  | 6.52 | 6.52 |  |  |  |
| CC(=O)Nc1nc2cnc(Oc3cc(NC(=O)c4cccc(OC(C)(C)C#N)c4)ccc3C)nc2s1 [Compound 4-3] | 72.4 | 7.14 | 6.29 | 6.29 |  |  |  |
| CC(C)(C#N)c1cccc(C(=O)Nc2cccc(Oc3ccc4nc(NC(=O)C5CC5)sc4c3[N+](=O)[O-])c2)c1 [Compound 5-1] |  |  |  |  | 7.15 | 7.60 |  |
| CC(C)(C#N)c1cccc(C(=O)Nc2cccc(Oc3ccc4nc(NC(=O)C5CC5)sc4c3C#N)c2)c1 [Compound 5-2] |  |  |  |  | 7.12 | 7.89 |  |
| COC(=O)c1c(Oc2cccc(NC(=O)c3cccc(C(C)(C)C#N)c3)c2)ccc2nc(NC(=O)C3CC3)sc12 [Compound 5-3] |  |  |  |  | 7.48 | 7.92 |  |
| CC(C)(C#N)c1cccc(C(=O)Nc2cccc(Oc3ccc4nc(NC(=O)C5CC5)sc4c3CO)c2)c1 [Compound 5-4] |  |  |  |  | 8.13 | 7.62 |  |
| N#Cc1c(Oc2cccc(NC(=O)Nc3ccccc3C(F)(F)F)c2)ccc2nc(NC(=O)C3CC3)sc12 [Compound 6-1] |  |  |  |  | 6.92 | 7.72 |  |
| N#Cc1c(Oc2cccc(NC(=O)Nc3ccc(C(F)(F)F)cc3)c2)ccc2nc(NC(=O)C3CC3)sc12 [Compound 6-2] |  |  |  |  | 6.48 | 7.74 |  |
| N#Cc1c(Oc2ccc(F)c(NC(=O)Nc3cccc(C(F)(F)F)c3)c2)ccc2nc(NC(=O)C3CC3)sc12 [Compound 6-3] |  |  |  |  | 6.14 | 7.31 |  |
| N#Cc1c(Oc2ccc(F)c(NC(=O)Nc3ccc(C(F)(F)F)cc3)c2)ccc2nc(NC(=O)C3CC3)sc12 [Compound 6-4] |  | < 7.59 |  |  | 6.18 | 7.59 |  |
| N#Cc1c(Oc2cccc(NC(=O)Cc3ccccc3C(F)(F)F)c2)ccc2nc(NC(=O)C3CC3)sc12 [Compound 6-5] |  |  |  |  | 7.00 | 7.85 |  |
| N#Cc1c(Oc2cccc(NC(=O)Cc3cccc(C(F)(F)F)c3)c2)ccc2nc(NC(=O)C3CC3)sc12 [Compound 6-6] |  |  |  |  | 6.82 | 8.89 |  |
| N#Cc1c(Oc2cccc(NC(=O)Cc3ccc(C(F)(F)F)cc3)c2)ccc2nc(NC(=O)C3CC3)sc12 [Compound 6-7] |  |  |  |  | 6.72 | 8.02 |  |
| N#Cc1c(Oc2ccc(F)c(NC(=O)Cc3cccc(C(F)(F)F)c3)c2)ccc2nc(NC(=O)C3CC3)sc12 [Compound 6-8] |  |  |  |  | 6.80 | 8.62 |  |
| CNC(=O)c1nc2ccc(C(=O)c3cccc(NC(=O)c4ccc(C)cc4)c3)cc2[nH]1 [Compound D1] |  |  |  |  |  |  | Actual pIC50 B-Raf (B-Raf^V600E [5]): 6.55; pIC50 (B-Raf^V600E [5]): 6.55; Actual pIC50 KDR (KDR): 6.00; pIC50 (KDR): 6.00 |
| CNC(=O)c1nc2ccc(C(=O)c3cccc(NC(=O)c4cccc(Cl)c4)c3)cc2[nH]1 [Compound D2] |  |  |  |  |  |  | Actual pIC50 B-Raf (B-Raf^V600E [5]): 6.38; pIC50 (B-Raf^V600E [5]): 6.38; Actual pIC50 KDR (KDR): 6.68; pIC50 (KDR): 6.68 |
| CNC(=O)c1nc2ccc(C(=O)c3cccc(NC(=O)c4ccc(Cl)cc4)c3)cc2[nH]1 [Compound D3] |  |  |  |  |  |  | pIC50 (B-Raf^V600E [5]): < 5.30; Actual pIC50 KDR (KDR): 6.02; pIC50 (KDR): 6.02 |
